Results as given in US20210147455A1 (SHAANXI SYNTHETIC PHARMACEUTICAL CO., LTD., priority 2018, published 2021).
Where “and” joins values, the source holds several entries; their conditions need not be identical. Identical values can stand only once. Like-named read-outs stand apart in the source and are kept apart here.

Columns and labels:
[1] = Hygroscopicity study (Chinese Pharmacopoeia 2015, 9103); format: physicochemical; conditions: for Hygroscopic weight gain: 25° C.±1° C., saturated ammonium chloride solution, 24 hours; for Conclusion (hygroscopicity): after 24 hours
Method: Test method: • 1. A dried glass weighing bottle with stopper (having an outer diameter of 50 mm and a height of 15 mm) was placed in a thermostatic drier (a saturated ammonium chloride solution was placed on the lower part of the thermostatic drier) at an appropriate temperature of 25° C.±1° C. on the day earlier before the test, and the weight (m1) of weighing bottle was precisely weighed. • 2. An appropriate amount of test sample was taken and spread in the weighing bottle, and the thickness of the test sample was controlled to about 1 mm, and the weight (m2) was precisely weighed. • 3. The weighing bottle was opened and was placed, together with the bottle cap, under the above mentioned constant temperature and humidity condition for 24 hours. • 4. The weighing bottle was capped and precisely weighed to obtain the weight (m3).
Description of hygroscopicity characterization and delimitation of hygroscopicity weight gain: Deliquescence: enough moisture is absorbed to form a liquid. […] Slightly hygroscopic: hygroscopic weight gain is less than 2% but not less than 0.2%. Not or hardly hygroscopic: hygroscopic weight gain is less than 0.2%.

[2] = Stability experiments under 25° C.±2° C. and 65% R.H±5% R.H; conditions: 25° C./65% R.H
Excerpt: • 1. […] The results are shown in detail in the following table.

[3] = Stability experiments under 40° C.±2° C. and 75% R.H±5% R.H (accelerated test); format: physicochemical; conditions: 40° C./75% R.H
[4] = day 5, High temperature of 40° C.
[5] = day 10, High temperature of 40° C.
[6] = month 3, Phosphate Monopotassium Salt
[7] = month 6, Phosphate Monopotassium Salt
[8] = month 9, Phosphate Monopotassium Salt
[9] = month 12, Phosphate Monopotassium Salt
[10] = month 24, Phosphate Monopotassium Salt

CC[C@@H]([C@H](C)OP(=O)([O-])[O-])n1ncn(-c2ccc(N3CCN(c4ccc(OC[C@@H]5CO[C@@](Cn6cncn6)(c6ccc(F)cc6F)C5)cc4)CC3)cc2)c1=O.O.O.O.O.O.[Na+].[Na+] [Comparative Example 9, Posaconazole Phosphate Disodium Salt Pentahydrate]
Hygroscopic weight gain [1]: 12.01% | Content ([2]; month 0): 99.87% | Description ([2]; month 0): White | Related substance ([2]; month 0): 0.13% | Content ([2]; month 3): 99.73% | Description ([2]; month 3): White | Related substance ([2]; month 3): 0.27% | Content ([2]; month 6): 99.68% | Description ([2]; month 6): White | Related substance ([2]; month 6): 0.32% | Content ([2]; month 9): 99.51% | Description ([2]; month 9): White | Related substance ([2]; month 9): 0.49% | Content ([2]; month 12): 99.41% | Description ([2]; month 12): White | Related substance ([2]; month 12): 0.59% | Content ([2]; month 24): 98.87% | Description ([2]; month 24): White | Related substance ([2]; month 24): 1.13% | Content ([3]; month 0): 99.87% | Description ([3]; month 0): White | Related substance ([3]; month 0): 0.13% | Content ([3]; month 1): 99.72% | Description ([3]; month 1): White | Related substance ([3]; month 1): 0.28% | Content ([3]; month 2): 99.62% | Description ([3]; month 2): White | Related substance ([3]; month 2): 0.38% | Content ([3]; month 3): 99.45% | Description ([3]; month 3): White | Related substance ([3]; month 3): 0.55% | Content ([3]; month 6): 99.32% | Description ([3]; month 6): White | Related substance ([3]; month 6): 0.68%

CC[C@@H]([C@H](C)OP(=O)(O)O)n1ncn(-c2ccc(N3CCN(c4ccc(OC[C@@H]5CO[C@@](Cn6cncn6)(c6ccc(F)cc6F)C5)cc4)CC3)cc2)c1=O [Example 3, Posaconazole Phosphate Monocholinate Pentahydrate]
Hygroscopic weight gain [1]: 0.15% | Conclusion (hygroscopicity) [1]: No hygroscopicity | Content ([2]; month 0): 99.37% | Description ([2]; month 0): White | Related substance ([2]; month 0): 0.13% | Content ([2]; month 3): 99.87% | Description ([2]; month 3): White | Related substance ([2]; month 3): 0.13% | Content ([2]; month 6): 99.87% | Description ([2]; month 6): White | Related substance ([2]; month 6): 0.13% | Content ([2]; month 9): 99.84% | Description ([2]; month 9): White | Related substance ([2]; month 9): 0.16% | Content ([2]; month 12): 99.84% | Description ([2]; month 12): White | Related substance ([2]; month 12): 0.16% | Content ([2]; month 24): 99.79% | Description ([2]; month 24): White | Related substance ([2]; month 24): 0.21% | Content ([3]; month 0): 99.87% | Description ([3]; month 0): White | Related substance ([3]; month 0): 0.13% | Content ([3]; month 1): 99.87% | Description ([3]; month 1): White | Related substance ([3]; month 1): 0.13% | Content ([3]; month 2): 99.87% | Description ([3]; month 2): White | Related substance ([3]; month 2): 0.13% | Content ([3]; month 3): 99.86% | Description ([3]; month 3): White | Related substance ([3]; month 3): 0.14% | Content ([3]; month 6): 99.85% | Description ([3]; month 6): White | Related substance ([3]; month 6): 0.15% | Content (day 0): 99.87% | Description (day 0): White | Related substance (day 0): 0.13% | Content (day 5, High humidity of 92.5%): 99.86% | Description (day 5, High humidity of 92.5%): White | Related substance (day 5, High humidity of 92.5%): 0.14% | Content [4]: 99.87% | Description [4]: White | Related substance [4]: 0.13% | Content (day 5, Illumination of 4500LX): 99.87% | Description (day 5, Illumination of 4500LX): White | Related substance (day 5, Illumination of 4500LX): 0.13% | Content (day 10, High humidity of 92.5%): 99.86% | Description (day 10, High humidity of 92.5%): White | Related substance (day 10, High humidity of 92.5%): 0.14% | Content [5]: 99.85% | Description [5]: White | Related substance [5]: 0.15% | Content (day 10, Illumination of 4500LX): 99.86% | Description (day 10, Illumination of 4500LX): White | Related substance (day 10, Illumination of 4500LX): 0.14%

Posaconazole Phosphate Disodium Salt [Comparative Example 10]
Hygroscopic weight gain [1]: 13.91% | Content ([2]; month 0): 99.87% | Description ([2]; month 0): White | Related substance ([2]; month 0): 0.13% | Content ([2]; month 3): 99.72% | Description ([2]; month 3): White | Related substance ([2]; month 3): 0.28% | Content ([2]; month 6): 99.62% | Description ([2]; month 6): White | Related substance ([2]; month 6): 0.38% | Content ([2]; month 9): 99.57% | Description ([2]; month 9): White | Related substance ([2]; month 9): 0.43% | Content ([2]; month 12): 99.40% | Description ([2]; month 12): White | Related substance ([2]; month 12): 0.60% | Content ([2]; month 24): 98.84% | Description ([2]; month 24): White | Related substance ([2]; month 24): 1.16% | Content ([3]; month 0): 99.87% | Description ([3]; month 0): White | Related substance ([3]; month 0): 0.13% | Content ([3]; month 1): 99.72% | Description ([3]; month 1): White | Related substance ([3]; month 1): 0.28% | Content ([3]; month 2): 99.60% | Description ([3]; month 2): White | Related substance ([3]; month 2): 0.40% | Content ([3]; month 3): 99.45% | Description ([3]; month 3): White | Related substance ([3]; month 3): 0.55% | Content ([3]; month 6): 99.34% | Description ([3]; month 6): White | Related substance ([3]; month 6): 0.66%

Posaconazole Phosphate Monopotassium Salt Trihydrate [Comparative Example 6]
Hygroscopic weight gain [1]: 1.95% | Conclusion (hygroscopicity) [1]: Slight hygroscopicity | Content ([2]; month 0): 99.87% | Description ([2]; month 0): White | Related substance ([2]; month 0): 0.13% | Content ([2]; month 3): 99.78% | Description ([2]; month 3): White | Related substance ([2]; month 3): 0.22% | Content ([2]; month 6): 99.70% | Description ([2]; month 6): White | Related substance ([2]; month 6): 0.30% | Content ([2]; month 9): 99.59% | Description ([2]; month 9): White | Related substance ([2]; month 9): 0.41% | Content ([2]; month 12): 99.48% | Description ([2]; month 12): White | Related substance ([2]; month 12): 0.52% | Content ([2]; month 24): 99.00% | Description ([2]; month 24): White | Related substance ([2]; month 24): 1.00% | Content ([3]; month 0): 99.87% | Description ([3]; month 0): White | Related substance ([3]; month 0): 0.13% | Content ([3]; month 1): 99.76% | Description ([3]; month 1): White | Related substance ([3]; month 1): 0.24% | Content ([3]; month 2): 99.65% | Description ([3]; month 2): White | Related substance ([3]; month 2): 0.35% | Content ([3]; month 3): 99.49% | Description ([3]; month 3): White | Related substance ([3]; month 3): 0.51% | Content ([3]; month 6): 99.38% | Description ([3]; month 6): White | Related substance ([3]; month 6): 0.62%

Posaconazole Phosphate Monopotassium Salt [Comparative Example 3]
Hygroscopic weight gain [1]: 1.56% | Conclusion (hygroscopicity) [1]: Slight hygroscopicity | Content ([2]; month 0): 99.87% | Description ([2]; month 0): White | Related substance ([2]; month 0): 0.13% | Description ([2]; month 3): White | Content [2, 6]: 99.73% and 99.80% | Related substance [2, 6]: 0.27% and 0.20% | Description ([2]; month 6): White | Content [2, 7]: 99.67% and 99.68% | Related substance [2, 7]: 0.37% and 0.32% | Description ([2]; month 9): White | Content [2, 8]: 99.55% and 99.59% | Related substance [2, 8]: 0.45% and 0.41% | Description ([2]; month 12): White | Content [2, 9]: 99.41% and 99.48% | Related substance [2, 9]: 0.59% and 0.52% | Description ([2]; month 24): White | Content [2, 10]: 98.88% and 99.03% | Related substance [2, 10]: 1.12% and 0.97% | Content ([3]; month 0): 99.87% | Description ([3]; month 0): White | Related substance ([3]; month 0): 0.13% | Content ([3]; month 1): 99.75% | Description ([3]; month 1): White | Related substance ([3]; month 1): 0.25% | Content ([3]; month 2): 99.64% | Description ([3]; month 2): White | Related substance ([3]; month 2): 0.36% | Content ([3]; month 3): 99.51% | Description ([3]; month 3): White | Related substance ([3]; month 3): 0.49% | Content ([3]; month 6): 99.38% | Description ([3]; month 6): White | Related substance ([3]; month 6): 0.62%

Posaconazole Phosphate Monosodium Salt Trihydrate [Comparative Example 7]
Hygroscopic weight gain [1]: 1.86% | Conclusion (hygroscopicity) [1]: Slight hygroscopicity | Content ([2]; month 0): 99.87% | Description ([2]; month 0): White | Related substance ([2]; month 0): 0.18% | Content ([2]; month 3): 99.78% | Description ([2]; month 3): White | Related substance ([2]; month 3): 0.22% | Content ([2]; month 6): 99.71% | Description ([2]; month 6): White | Related substance ([2]; month 6): 0.29% | Content ([2]; month 9): 99.61% | Description ([2]; month 9): White | Related substance ([2]; month 9): 0.39% | Content ([2]; month 12): 99.51% | Description ([2]; month 12): White | Related substance ([2]; month 12): 0.49% | Content ([2]; month 24): 98.98% | Description ([2]; month 24): White | Related substance ([2]; month 24): 1.02% | Content ([3]; month 0): 99.87% | Description ([3]; month 0): White | Related substance ([3]; month 0): 0.13% | Content ([3]; month 1): 99.77% | Description ([3]; month 1): White | Related substance ([3]; month 1): 0.23% | Content ([3]; month 2): 99.63% | Description ([3]; month 2): White | Related substance ([3]; month 2): 0.37% | Content ([3]; month 3): 99.50% | Description ([3]; month 3): White | Related substance ([3]; month 3): 0.50% | Content ([3]; month 6): 99.37% | Description ([3]; month 6): White | Related substance ([3]; month 6): 0.63%
